The record followed here is patent US20080025960A1, “Detergents with stabilized enzyme systems” (priority 2006, published 2008).

For assay [1], the target named is T1, choline oxidase (Arthrobacter globiformis, UniProt Q7X2H8).
T1 sequence (Q7X2H8 1-546): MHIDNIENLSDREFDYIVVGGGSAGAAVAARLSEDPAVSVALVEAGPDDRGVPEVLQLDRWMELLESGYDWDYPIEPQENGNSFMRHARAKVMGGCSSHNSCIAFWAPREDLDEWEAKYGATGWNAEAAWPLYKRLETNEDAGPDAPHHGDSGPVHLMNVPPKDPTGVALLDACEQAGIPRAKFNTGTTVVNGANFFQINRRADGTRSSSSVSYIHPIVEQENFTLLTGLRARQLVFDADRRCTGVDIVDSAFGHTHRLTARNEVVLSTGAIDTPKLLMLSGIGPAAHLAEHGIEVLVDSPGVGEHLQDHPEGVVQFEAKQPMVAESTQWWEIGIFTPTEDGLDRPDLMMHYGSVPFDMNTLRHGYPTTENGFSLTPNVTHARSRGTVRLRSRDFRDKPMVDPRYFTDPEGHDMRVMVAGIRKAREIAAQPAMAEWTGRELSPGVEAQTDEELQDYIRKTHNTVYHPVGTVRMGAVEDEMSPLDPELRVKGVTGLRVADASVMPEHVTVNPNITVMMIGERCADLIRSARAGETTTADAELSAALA
The assay is described as follows: H2O2 in wash liquor with choline oxidase, choline chloride and inhibitor. It is filed as biochemical. To be noted: 2 mM choline chloride, 0.02U enzyme, 0.4 mM AMP inhibitor. The method, then: (§1) The experiments were conducted as described in Example 1. Choline oxidase produces two moles of H2O2 per mole of choline. The results obtained in these experiments confirmed that choline oxidase was stable in AATCC detergent over 24 hour period tested in presence of choline and inhibitors. […] Upon dilution in wash liquor, detergent containing choline oxidase, choline chloride and an inhibitor (e.g., sodium hydrogen sulfite or 2-amino,2-methyl,1-propanol) produced H2O2 over time, as indicated in Table 5.

Assay [2] deals with T1, choline oxidase. The assay is described as follows: H2O2 in control buffer or AATCC liquid detergent stock with choline oxidase, choline and inhibitor. It is filed as biochemical. To be noted: for H2O2 PPM: 1 M choline. The method, then: In this Example, experiments conducted to assess the stabilization of choline oxidase in the presence of its substrate (i.e., choline) and an inhibitor (i.e., sodium bisulfite and 2-amino,2-methyl,1-propanol) is described. In these experiments, AATCC standard detergent was used.
as §1

The target of assay [3] is T2, glucose oxidase (Aspergillus niger, UniProt P13006).
T2 construct: purchased Genencor OXYGO L-5000
The assay is described as follows: Premature hydrogen peroxide generation by glucose oxidase in control buffer or AATCC liquid detergent stock (as is) with glucose and inhibitor, dipsticks. It is filed as biochemical. Conditions: 2 M hydroxylamine; detergent containing 1 M glucose and 500 PPM glucose oxidase.

Assay [4] concerns the target T2, glucose oxidase. The description is as above. It is filed as biochemical. To be noted: 1 M inhibitor; same methods as Examples 1-4. From the text:
In this Example, experiments conducted to assess the stabilization of glucose oxidase in the presence of its substrate (i.e., glucose) and an inhibitor (i.e., sodium hydrogen sulfite) is described. In these experiments, AATCC standard detergent (American Association of Textile Chemists and Colorists Heavy Duty Liquid detergent version 2003 without brightener; key components include linear alkane sulfonate, alcohol ethoxylate, propanediol, citric acid, fatty acid, castic soda and water; purchased from TestFabrics) was used.
In these experiments, 100 mM Tris pH 8.3, with 0.005% TWEEN®-100 surfactant used as a positive control. […] Three two-ml tubes were weighed with 0.990 g of AATCC detergent (lot # 01282004) and another three tubes with 0.990 g of control buffer. Then, 90 mg (500 mM) of glucose substrate were added to all of the tubes. Next, 100, 50, and 10 mM sodium hydrogen sulfite (MW 106.1) were added to each tube respectively, including the control buffer and AATCC detergent control. All of the tubes were placed on a rotary plate for an hour to allow good mixing and solubilization of glucose into the detergent. Then, 500 PPM (0.5 mg, 14.88 ul) glucose oxidase (OXYGO™ L-5000, 5379 U/ml; 33.6 mg/ml; Genencor) was added to six 2-ml tubes (three with glucose/bisulfite containing control buffers and three with glucose/bisulfite containing AATCC detergent). All of the tubes were then set on the rotary plate (60 rpm) at room temperature. Hydrogen peroxide production was measured using dipsticks (peroxidase/ABTS—Baker Testrips;Baker) at various times—t=0+minutes, 12 minutes, and 30 minutes. The tube containing 100 mM bisulfite with glucose, glucose oxidase in liquid detergent was further monitored for premature generation of hydrogen peroxide further over a period of time starting at 1 hr, 12 hr, 7 days, 12 days and up to 21 days.
In these experiments, 100 mM Tris pH 8.3, with 0.005% TWEEN®-100 surfactant was used as a positive control. […] Three two-ml tubes were weighed with 0.990 g of AATCC detergent (lot # 01282004) and another three tubes with 0.990 g of control buffer.
Three two-ml tubes containing 0.990 g of AATCC detergent (lot # 01282004) and another three tubes with 0.990 g of control buffer were weighed. Then, 90 mg (500 mM) glucose substrate was added to each tube. Then, 100, 50, and 10 mM sodium metabisulfite were added to each tube respectively (i.e., both control buffer and AATCC detergent-containing tubes). All of the tubes were placed on a rotary plate for an hour to allow good mixing and solubilization of glucose into the detergent. Next, 500 PPM (0.5 mg, 14.88 ul) glucose oxidase (OXYGO™ L-5000, 5379 U/ml; 33.6 mg/ml; Genencor) was added to six 2-ml tubes (three with glucose/metabisulfite containing control buffers and three with glucose/metabisulfite containing AATCC detergent). All of the tubes were then set on the rotary plate (60 rpm) at room temperature. H2O2 production was measured using dipsticks (peroxidase/ABTS), as described in Examples 1 and 2, for t=0+ minutes, 12 minutes, and 30 minutes. The tube containing 100 mM bisulfite with glucose, glucose oxidase in liquid detergent was further monitored for premature generation of hydrogen peroxide further over a period of time starting at 1 hr, 12 hr, 7 days, 12 days and up to 21 days.

The target in assay [5] is T3, alcohol oxidase (Pichia angusta, UniProt P04841).
T3 construct: purchased Sigma
The assay is described as follows: Hydrogen peroxide concentration in wash liquor with alcohol oxidase, ethanol and inhibitor. It is filed as biochemical, Hansunela sp. Conditions: 2 mM ethanol, 0.02U enzyme, 0.2 mM inhibitor. As to the method:
The stability and activity of the alcohol oxidase enzyme (described in Example 5) in AATCC liquid detergent (Sigma, 100 U/ml. 22 U/mg, 13 mg total solid in vial, 7.7 U/mg solid) was tested upon dilution into wash liquor. In these experiments, 10 U of alcohol oxidase were used in liquid detergent stock for each experiment. In addition, 1M ethanol (substrate) was mixed in detergent (46 mg ethanol in 990 mg detergent). […] In these experiments, 10 ul of final detergent mix or control mix were added to 5 ml of wash liquor. The same methods as described in Examples 2 and 4 were used in these experiments.

In assay [6] the target is T3, alcohol oxidase. The assay is described as follows: Hydrogen peroxide concentration in control buffer or AATCC liquid detergent stock (as is) with alcohol oxidase, ethanol and inhibitor. It is filed as biochemical, Hansunela sp. To be noted: for H2O2 PPM: as is, 1 M ethanol, 10U enzyme, 100 mM inhibitor. The method, then:
In these experiments, the stability of alcohol oxidase obtained from Hansunela sp., (100 U/ml. 22 U/mg, 13 mg total solid in vial, 7.7 U/mg solid; Sigma) in AATCC liquid detergent was tested. In these experiments, 10 U of the alcohol oxidase were used in liquid detergent stock for each experiment. For testing, 1M ethanol was mixed into the detergent (46 mg ethanol in 990 mg detergent). […] The experiments were conducted as described above in Examples 1 and 3.

T2 sequence (P13006 17-605): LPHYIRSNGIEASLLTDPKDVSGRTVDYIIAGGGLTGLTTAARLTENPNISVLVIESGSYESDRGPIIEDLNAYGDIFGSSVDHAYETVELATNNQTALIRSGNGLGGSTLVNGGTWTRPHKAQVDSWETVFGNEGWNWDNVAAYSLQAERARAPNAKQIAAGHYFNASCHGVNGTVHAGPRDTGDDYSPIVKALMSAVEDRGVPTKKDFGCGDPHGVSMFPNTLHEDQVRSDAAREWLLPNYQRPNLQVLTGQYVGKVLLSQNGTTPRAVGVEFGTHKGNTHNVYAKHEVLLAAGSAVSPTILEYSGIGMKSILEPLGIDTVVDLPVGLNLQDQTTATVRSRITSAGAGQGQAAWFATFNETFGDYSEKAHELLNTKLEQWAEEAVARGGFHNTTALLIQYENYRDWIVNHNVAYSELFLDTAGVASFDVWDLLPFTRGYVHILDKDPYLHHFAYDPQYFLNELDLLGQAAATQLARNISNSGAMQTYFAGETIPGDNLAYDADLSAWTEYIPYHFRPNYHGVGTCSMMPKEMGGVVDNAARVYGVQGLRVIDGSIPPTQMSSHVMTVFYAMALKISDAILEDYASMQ
T3 sequence (P04841 whole entry): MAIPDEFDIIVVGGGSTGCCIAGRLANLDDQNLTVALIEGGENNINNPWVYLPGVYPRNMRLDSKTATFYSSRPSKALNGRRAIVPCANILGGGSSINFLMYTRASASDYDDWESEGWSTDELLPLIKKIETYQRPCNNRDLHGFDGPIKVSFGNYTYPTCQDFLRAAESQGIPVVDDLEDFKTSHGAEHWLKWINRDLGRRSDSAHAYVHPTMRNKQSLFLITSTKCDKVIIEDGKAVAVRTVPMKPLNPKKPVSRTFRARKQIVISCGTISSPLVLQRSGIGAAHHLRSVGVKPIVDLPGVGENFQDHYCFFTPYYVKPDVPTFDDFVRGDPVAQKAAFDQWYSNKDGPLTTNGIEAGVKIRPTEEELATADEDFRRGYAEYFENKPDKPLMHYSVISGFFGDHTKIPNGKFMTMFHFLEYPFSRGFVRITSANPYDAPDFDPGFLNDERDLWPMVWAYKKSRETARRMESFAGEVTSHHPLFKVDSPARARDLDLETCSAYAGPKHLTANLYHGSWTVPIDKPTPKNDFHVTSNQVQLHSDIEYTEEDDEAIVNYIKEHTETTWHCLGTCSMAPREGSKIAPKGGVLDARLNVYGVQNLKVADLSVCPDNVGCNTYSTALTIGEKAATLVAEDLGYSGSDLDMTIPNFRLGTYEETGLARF

Regarding `CC(C)(N)CO` [AMP, 2-amino,2-methyl,1-propanol], the “H2O2 PPM” value in assay [1] (AATCC Detergent, T = 0+) is listed as 1 PPM; in assay [1] (AATCC Detergent, T = 12 min) it was 3 PPM; in assay [1] (AATCC Detergent, T = 30 min), 3 PPM; in assay [1] (AATCC Detergent, T = 60 min) it was 10 PPM; in assay [1] (Control Buffer, T = 0+), 1 PPM; in assay [1] (Control Buffer, T = 12 min), 3 PPM. Also, the “H2O2 PPM” value in assay [1] (Control Buffer, T = 30 min) worked out at 3 PPM; in assay [1] (Control Buffer, T = 60 min) it was 10 PPM; in assay [2] (AATCC Detergent, T = 0+, 1U enzyme, 100 mM AMP inhibitor), 0 PPM; in assay [2] (AATCC Detergent, T = 12 min, 1U enzyme, 100 mM AMP inhibitor), 1 PPM; in assay [2] (AATCC Detergent, T = 12 min, 1U or 10U enzyme, 200 mM AMP (pH ~9.3)), 0 PPM; in assay [2] (Control Buffer, T = 0+, 1U enzyme, 100 mM AMP inhibitor) it was 0 PPM. For the same compound, the “H2O2 PPM” value in assay [2] (Control Buffer, T = 12 min, 1U enzyme, 100 mM AMP inhibitor) was 1 PPM; in assay [2] (Control Buffer, T = 12 min, 1U or 10U enzyme, 200 mM AMP (pH ~9.3)) it was 0 PPM. For the same compound, the “premature regeneration of H2O2 in detergent” value in assay [2] (AMP used at 200 mM) is given as “stops premature regeneration of H2O2”. Also, in assay [2] (sodium hydrogen sulfite at 100 mM concentration tested), the “character of choline oxidase inhibition” value is reported as “reversible inhibitor”.

As for `NO` [hydroxylamine], the “stabilization of premature hydrogen peroxide generation” value in assay [3] is “can stabilize premature hydrogen peroxide generation”.

Turning to `[F-].[Na+]` [sodium fluoride], in assay [4], the glucose oxidase inhibition entry is listed as “small degree of glucose oxidase inhibition”.

In the case of `O=S(O)(O)=S` [sodium thiosulfate], the “H2O2 PPM” value in assay [5] (AATCC Detergent, T = 0+) is 0 PPM; in assay [5] (AATCC Detergent, T = 30 min) it was 0 PPM; in assay [5] (AATCC Detergent, T = 120 min) it was >3 (thiosulfate) PPM; in assay [5] (Control Buffer, T = 0+) it was 0 PPM; in assay [5] (Control Buffer, T = 30 min) it was 0 PPM; in assay [6] (AATCC Detergent, T = 0+) it was 3 PPM. For the same compound, the “H2O2 PPM” value in assay [6] (AATCC Detergent, T = 120 min) was “(>10--thiosulfate) PPM”; in assay [6] (Control Buffer, T = 0+) it was “˜10 PPM”; in assay [6] (Control Buffer, T = 120 min), 0 PPM. The “character of alcohol oxidase inhibition” value in assay [6] (100 mM concentration tested) is on record as “week inhibitor”. Moreover, in assay [4], the glucose oxidase inhibition entry was “small degree of glucose oxidase inhibition”.
